Measurements published in patent US7772269B2, “Pyrazole analogs” (Pfizer Inc., priority 2006, dated 2010).

Experiments:
5-LO [1] = molecular target: T1, 5-LO (Homo sapiens, UniProt P09917); assay: Fluorescence Intensity 5-LO Enzyme Assay; type: biochemical; conditions: recombinant human 5-LO crude lysate, H2DCFDA oxidation, 3 μM arachidonic acid
T1 sequence (P09917 1-674): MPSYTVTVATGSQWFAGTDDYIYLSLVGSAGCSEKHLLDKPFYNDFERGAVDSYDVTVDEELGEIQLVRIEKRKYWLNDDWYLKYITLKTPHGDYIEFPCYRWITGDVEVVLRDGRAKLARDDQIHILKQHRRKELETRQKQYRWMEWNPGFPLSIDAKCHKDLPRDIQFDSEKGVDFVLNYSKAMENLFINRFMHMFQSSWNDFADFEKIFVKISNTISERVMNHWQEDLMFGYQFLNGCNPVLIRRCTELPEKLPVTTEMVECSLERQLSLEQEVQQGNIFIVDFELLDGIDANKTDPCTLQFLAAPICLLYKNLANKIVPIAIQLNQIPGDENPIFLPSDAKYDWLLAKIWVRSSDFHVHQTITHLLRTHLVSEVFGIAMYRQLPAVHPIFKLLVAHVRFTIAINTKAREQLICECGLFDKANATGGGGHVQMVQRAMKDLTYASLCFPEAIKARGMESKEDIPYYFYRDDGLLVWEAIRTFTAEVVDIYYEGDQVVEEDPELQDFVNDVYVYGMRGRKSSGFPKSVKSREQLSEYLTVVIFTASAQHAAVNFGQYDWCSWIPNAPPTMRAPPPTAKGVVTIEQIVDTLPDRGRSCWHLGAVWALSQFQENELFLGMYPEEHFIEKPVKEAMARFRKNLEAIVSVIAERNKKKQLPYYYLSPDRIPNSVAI
Experimental: The enzyme assay is based on the oxidation of the non-fluorescent compound 2′,7′-dichlorodihydrofluorescein diacetate (H2DCFDA) to the fluorescent 2′,7′ dichlorofluorescein by 5-LO in an arachidonic acid-dependent reaction. Ester cleavage of the acetate groups of the substrate H2DCFDA must occur prior to oxidation. This is achieved through use of a crude cell lysate preparation of recombinant human 5-LO. The enzyme assay ([…]) contained 50 mM Tris (pH 7.5), 2 mM CaCl2, 2 mM EDTA, 3 μM arachidonic acid (Nu-Chek Prep; #S-1133), 10 μM ATP, 10 μM H2DCFDA (Invitrogen; #D399), inhibitor (varying concentration) and recombinant human 5-LO enzyme (1.25 μL crude lysate per well).
Inhibitors (dissolved in DMSO) were plated into a 384-well assay plate (Corning #3654) at 1 μL followed by a 20 μL addition of a solution containing 5-LO enzyme and H2DCFDA. Enzyme and H2DCFDA were pre-incubated for 5 minutes to allow time for acetate group cleavage of the dye prior to addition to the assay plate. After a 10 minute preincubation of inhibitor and enzyme/dye mix, the assay was initiated by the addition of a substrate solution containing arachidonic acid and ATP. The enzymatic reaction was run for 20 min at room temperature and terminated by the addition of 40 μL of acetonitrile. Assay plates were read in a plate reader using standard wavelengths for fluorescein. […]

5-LO [2] = molecular target: T2, 5-LO (Rattus norvegicus, UniProt P12527); assay: Carrageenan-induced eicosanoid production in the rat air pouch; type: in vivo; conditions: leukotriene levels in rat air pouch fluid, lower % = higher activity
T2 construct: from tissue; host or cells: rat air pouch (Lewis rat, in vivo)
T2 sequence (P12527 1-673): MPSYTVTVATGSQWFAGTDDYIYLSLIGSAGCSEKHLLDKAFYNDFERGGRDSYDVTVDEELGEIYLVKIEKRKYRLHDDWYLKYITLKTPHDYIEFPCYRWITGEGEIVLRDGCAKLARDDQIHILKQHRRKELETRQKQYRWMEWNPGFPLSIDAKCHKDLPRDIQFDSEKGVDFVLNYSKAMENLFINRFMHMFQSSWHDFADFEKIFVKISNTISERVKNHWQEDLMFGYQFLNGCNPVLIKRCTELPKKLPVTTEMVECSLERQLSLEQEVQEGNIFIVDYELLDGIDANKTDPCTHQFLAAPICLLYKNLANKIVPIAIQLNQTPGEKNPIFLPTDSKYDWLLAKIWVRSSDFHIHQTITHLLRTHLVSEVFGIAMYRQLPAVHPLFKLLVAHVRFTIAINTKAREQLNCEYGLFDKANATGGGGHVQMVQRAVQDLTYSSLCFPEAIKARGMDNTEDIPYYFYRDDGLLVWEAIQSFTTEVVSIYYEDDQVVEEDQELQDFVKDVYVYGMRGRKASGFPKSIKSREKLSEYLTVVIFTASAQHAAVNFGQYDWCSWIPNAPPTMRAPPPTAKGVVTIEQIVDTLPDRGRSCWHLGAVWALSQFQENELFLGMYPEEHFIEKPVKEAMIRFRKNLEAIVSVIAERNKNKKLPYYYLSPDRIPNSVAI
Experimental: For a correct interpretation of the results, it is noted that the lower the % of control, the higher the activity of a test compound. Male Lewis rats (175-200 g), Charles River Laboratories, Wilmington, Mass.) were used in the study. Air pouches were produced by subcutaneous injection of 20 ml of sterile air into the intrascapular area of the back. Pouches were allowed to develop for 1 day. Animals (6 per group) were fasted with free access to water for 16 to 24 hours prior to drug administration. Drugs or vehicle were administered by gavage 1 hour prior to injection of 2 ml of a 1% suspension of carrageenan (FMC BioPolymer, Philadelphia, Pa., Cat. # GP209-NF) dissolved in saline into the pouch. At 3 hours post-carrageenan injection, 1 ml of 50 μg/ml calcium ionophore in saline (A23187, Sigma Chemical Co, St. Louis, M, Cat. #C-7522) was injected into the pouch and the pouch fluid collected 10 minutes later by lavage. The fluid was centrifuged at 3500 rpm for 10 minutes at 4° C., and the supernatants were collected for analysis. Leukotriene levels were quantitated by ELISA according to the manufacturer's directions (Cayman Chemical Company, Ann Arbor, Mich.).

5-LO [3] = molecular target: T1, 5-LO; assay: Eicosanoid production from human whole blood (HWB/LTB4: ionophore induced LTB4); type: cell-based; set-up: from tissue; host or cells: pooled human whole blood
Experimental: Human whole blood was collected from healthy or asthmatic human donors in 10 ml heparinized tubes (Vacutainer tubes; Becton Dickenson, Franklin Lakes, N.J.). Collected blood was pooled and 80 μl was dispensed into each well of 384 well polypropylene plates using a Multi-Drop™ 384-well dispenser (Titertek, Huntsville, Ala.). Varying concentrations of compounds were dissolved in DMSO then 2 μl/well was added to the blood using a PlateMate Plus™ automated pipetting station (Matrix Technologies, Hudson, N.H.). The compounds were preincubated with the blood at room temperature for 10 minutes followed by stimulation with 40 μl calcium ionophore (A23187, Sigma Chemical Co, St. Louis, Mo., Cat. # C-7522) and 30 μl arachidonic acid (S-1133, NU-Chek PREP, Inc., Elysian, MN, Cat. # S-1133) dissolved in 60% ethanol. After 15 min incubation at 37° C. in a shallow water bath, the blood was centrifuged at 800 g for 10 minutes at 4° C., the supernatants collected, and leukotriene and prostaglandin levels measured by ELISA according to the manufacturer's directions (Cayman Chemical Company, Ann Arbor, Mich.). The assay was performed at a final concentration of 2.5% DMSO. Results of this assay are shown as follows:
HWB/LTB4: Ionophore Induced LTB4 from Human Whole Blood

[4] = clinical trial; cited from earlier work
[5] = Emesis evaluation in beagle dogs; type: in vivo; conditions: for emesis / emesis (number of dogs): dogs
Experimental: Experiments were undertaken to differentiate local gastrointestinal emetic stimuli during dissolution and absorption of an oral compound from emetic stimuli produced during systemic exposure through the bloodstream. […] These findings were observed after 8-12 kg purpose-bred beagle dogs were administered 4-(3-{[4-(1-methyl-1H-pyrazol-5-yl)phenyl]thio}phenyl)tetrahydro-2H-pyran-4-carboxamide by IV infusion, using a loading dose followed by a slow infusion to attain a peak blood level over 30 minutes to 1 hour in duration. More specifically, compounds were diluted in phosphate buffered saline to a concentration where 10 ml/kg total volume was administered through an intravenous catheter using an infusion pump, with approximately 90% of the total dose being delivered in the first 5 minutes, and the remaining dose administered over the next 25 minutes. Similar delivery methods to produce an exposure that approximates the systemic pharmacokinetic profile seen with oral delivery are anticipated to give similar results. More rapid methods of administration and the resultant high plasma concentrations are not anticipated to discriminate useful compounds from non-useful compounds. For example, IV bolus administration may produce a higher peak plasma concentration and systemic gastrointestinal effects than those achieved for compounds that following absorption from the GI tract, would have acceptable peak plasma concentrations and therapeutic efficacy. […] Periodic serum and plasma samples were obtained during the first 6 hours to document systemic inhibition of the 5-lipoxygenase enzyme as well as exposure levels of the compound. […] In one study, 4-(3-(4-(2-methyl-1H-imidazol-1-yl)phenylthio)phenyl)-tetrahydro-2H-pyran-4-carboxamide was administered intravenously at 10 mg/kg, 30 mg/kg and 60 mg/kg as well as 30 mg per kg by the oral route. […] In another experiment, 4-(3-{[4-(1-methyl-1H-pyrazol-5-yl)phenyl]thio}phenyl)tetrahydro-2H-pyran-4-carboxamide was administered orally at doses of 100 mg per kg, 300 mg per kg, and 600 mg per kg, with emesis only observed in 2 dogs at 100 mg per kg and one dog at 300 mg per kg.

5-lipoxygenase enzyme = assay: Systemic inhibition of the 5-lipoxygenase enzyme in dogs (emesis study); type: in vivo, beagle dogs; conditions: 5 mg/kg IV
Experimental: Experiments were undertaken to differentiate local gastrointestinal emetic stimuli during dissolution and absorption of an oral compound from emetic stimuli produced during systemic exposure through the bloodstream. […] These findings were observed after 8-12 kg purpose-bred beagle dogs were administered 4-(3-{[4-(1-methyl-1H-pyrazol-5-yl)phenyl]thio}phenyl)tetrahydro-2H-pyran-4-carboxamide by IV infusion, using a loading dose followed by a slow infusion to attain a peak blood level over 30 minutes to 1 hour in duration. More specifically, compounds were diluted in phosphate buffered saline to a concentration where 10 ml/kg total volume was administered through an intravenous catheter using an infusion pump, with approximately 90% of the total dose being delivered in the first 5 minutes, and the remaining dose administered over the next 25 minutes. Similar delivery methods to produce an exposure that approximates the systemic pharmacokinetic profile seen with oral delivery are anticipated to give similar results. More rapid methods of administration and the resultant high plasma concentrations are not anticipated to discriminate useful compounds from non-useful compounds. […]

IC50 (5-LO [1]) | % of Control (5-LO [2]; dose 1 mg/kg by gavage) | % of Control (5-LO [2]; dose 3 mg/kg by gavage) | % of Control (5-LO [2]; dose 10 mg/kg by gavage) | IC50 (5-LO [3]) | IC80 (5-LO [3]) | IC90 (5-LO [3]) | % of Control (5-LO [2]; dose 3 mg/kg by gavage, 3 mg/kg) | % of Control (5-LO [2]; dose 3 mg/kg by gavage, listed as 4-(3-{[4-(1-methyl-1H-pyrazol-5-yl)phenyl]thio}phenyl)tetrahydro-2H-pyran-4-carb, 3 mg/kg) | Structure (SMILES) | nausea or emesis [4] | emesis ([5]; intravenously at 10, 30 and 60 mg/kg and 30 mg per kg oral) | nausea and emesis ([5]; beagle dogs, IV infusion (loading dose followed by slow infusion)) | emesis ([5]; 5 mg/kg IV) | emesis (number of dogs) ([5]; another experiment, oral 100 mg per kg) | emesis (number of dogs) ([5]; another experiment, oral 300 mg per kg) | emesis ([5]; another experiment, oral 600 mg per kg) | emesis ([5]; oral route, doses of 10 and 100 mg per kg) | inhibition of the 5-LO enzyme (5-lipoxygenase enzyme)
204 nM | 25.74 % of Control | 0 % of Control | 0 % of Control | 152 nM | 357 nM | 1310 nM | – | – | Cn1nccc1-c1ccc(Sc2cccc(C3(C(N)=O)CCOCC3)c2)cc1F [(Ia), 4-(3-{[3-fluoro-4-(1-methyl-1H-pyrazol-5-yl)phenyl]thio}phenyl)tetrahydro-2H-pyran-4-carboxamide] | – | – | – | – | – | – | – | – | –
– | – | – | – | – | – | – | – | – | Cc1nccn1-c1ccc(Sc2cccc(C3(C(N)=O)CCOCC3)c2)cc1 [4-(3-(4-(2-methyl-1H-imidazol-1-yl)phenylthio)phenyl)-tetrahydro-2H-pyran-4-carboxamide, reference compound] | 30 % of human subjects | Emesis was observed in all dogs | – | – | – | – | – | – | –
229 nM | 20.24 % of Control | – | 2.30 % of Control | 135 nM | 397 nM | 716 nM | 5.23 % of Control | 20 % of Control | Cn1nccc1-c1ccc(Sc2cccc(C3(C(N)=O)CCOCC3)c2)cc1 [(Ib), 4-(3-{[4-(1-methyl-1H-pyrazol-5-yl)phenyl]thio}phenyl)tetrahydro-2H-pyran-4-carboxamide] | – | – | produce nausea and emesis through systemic exposure | no observed emesis | 2 dogs | one dog | No emesis was observed | emesis in only one dog at 100 mg per kg | 100%
